# Reference: patent publication US20220030868A1, “FUNGICIDAL HALOMETHYL KETONES AND HYDRATES” (FMC CORPORATION, priority 2018, published 2022)
# Tests used:
# Phakopsora pachyrhizi = experiment: Test A: test suspension sprayed on soybean seedlings one day before inoculation with Phakopsora pachyrhizi spores (Asian soybean rust), visual disease rating; type: in vivo; conditions: 100 = 100% disease control, 0 = no control; for pest or weed control at 50 ppm / pest or weed control at 10 ppm: Phakopsora pachyrhizi
# Summary of the method: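 Soybean seedlings were sprayed to run-off with test suspension (acetone 3% of volume, acetone/water 50/50, 250 ppm PEG400) and inoculated with rust spores one day later. Incubation: 24 h saturated atmosphere at 22° C, then 8 days growth chamber at 22° C; scores 0–100 relative to untreated controls.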
# [1] = system: Puccinia recondita f. sp. tritici; experiment: Test B: test suspension sprayed on wheat seedlings one day before inoculation with Puccinia recondita f. sp. tritici spores (wheat leaf rust), disease rating; type: in vivo; conditions: 100 = 100% disease control, 0 = no control
# Summary of the method: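 Wheat seedlings were sprayed to run-off with compound suspended in 50/50 acetone/water containing 250 ppm PEG400, then inoculated with P. recondita f. sp. tritici spores the next day. Plants were held 24 h in saturated air at 20 °C, then 6 days in a growth chamber at 20 °C. Disease control was rated 0–100% relative to controls, with some entries run at 50 or 10 ppm.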
Structure (SMILES),Test A rating (disease control) (Phakopsora pachyrhizi; 10 ppm test suspension),Test B rating (disease control) ([1]; 10 ppm test suspension),further results
C#CCNC(=O)c1ccc(O/C=C(\OCC)C(F)(F)F)cc1 [compound 102],0%,0%,
C=CCNC(=O)c1ccc(O/C=C(\OCC)C(F)(F)F)cc1 [compound 103],0%,0%,
CCCNC(=O)c1ccc(O/C=C(\OCC)C(F)(F)F)cc1 [compound 104],0%,80%,
CCO/C(=C\Oc1ccc(C(=O)NC)cc1)C(F)(F)F [compound 105],0%,68%,
CCO/C(=C\Oc1ccc(Cn2cc(C(=O)NCC(F)(F)F)cn2)cc1)C(F)(F)F [compound 106],0%,0%,
CCO/C(=C\Oc1ccc(Cn2cc(C(=O)NCC#N)cn2)cc1)C(F)(F)F [compound 107],0%,0%,
CCO/C(=C\Oc1ccc(CN)cc1)C(F)(F)F [compound 110],,,Test A rating (disease control) (Phakopsora pachyrhizi; 50 ppm test suspension): 79%; Test B rating (disease control) ([1]; 50 ppm test suspension): 0%
CCOC(=O)NCc1ccc(O/C=C(\OCC)C(F)(F)F)cc1 [compound 111],0%,0%,
CC(C)COC(=O)NCc1ccc(OCC2(C(F)(F)F)OCCO2)cc1 [compound 112],0%,0%,
CCO/C(=C\Oc1ccc(CNC(=O)CC(F)(F)F)cc1)C(F)(F)F [compound 113],0%,0%,
CCO/C(=C\Oc1ccc(CNC(=O)C(C)OC)cc1)C(F)(F)F (centres unmarked) [compound 114],,,Test A rating (disease control) (Phakopsora pachyrhizi; 50 ppm test suspension): 44%; Test B rating (disease control) ([1]; 50 ppm test suspension): 0%
CCOC(=O)c1cnn(Cc2ccc(SCC3(C(F)(F)F)OCCO3)cc2)c1 [compound 115],,,Test A rating (disease control) (Phakopsora pachyrhizi; 250 ppm test suspension): 0%; Test B rating (disease control) ([1]; 250 ppm test suspension): 0%
CCO/C(=C\Oc1ccc(Cn2cc(C(=O)O)cn2)cc1)C(F)(F)F [compound 116],100%,0%,
CCO/C(=C\Oc1ccc(Cn2cc(C(=O)NCC3CC3)cn2)cc1)C(F)(F)F [compound 117],23%,0%,
CCO/C(=C\Oc1ccc(Cn2cc(C(=O)NC(C)C)cn2)cc1)C(F)(F)F [compound 118],0%,0%,
CCOC(=O)c1cnn(Cc2ccc(O/C=C(\OCC)C(F)(F)F)cc2)n1 [compound 119],97%,0%,
CCOC(=O)c1cnnn1Cc1ccc(O/C=C(\OCC)C(F)(F)F)cc1 [compound 120],0%,0%,
CCOC(=O)c1cn(Cc2ccc(O/C=C(\OCC)C(F)(F)F)cc2)nn1 [compound 121],100%,0%,
CCCCOC(=O)c1cnn(Cc2ccc(OCC3(C(F)(F)F)OCCO3)cc2)c1 [compound 125],100%,0%,
CCO/C(=C\Oc1ccc(Cc2nc(C(=O)NCC(F)(F)F)cs2)cc1)C(F)(F)F [compound 129],100%,0%,
CCO/C(=C\Oc1ccc(Cc2nc(C(=O)NCC3CC3)cs2)cc1)C(F)(F)F [compound 130],100%,0%,
CCOC(=O)c1cnn(CCc2ccc(OCC3(C(F)(F)F)OCCO3)cc2)c1 [compound 133],79%,0%,
O=C(OCC(F)(F)F)c1cnn(Cc2ccc(OCC3(C(F)(F)F)OCCO3)cc2)c1 [compound 134],89%,32%,
CCO/C(=C\Oc1ccc(Cn2cc(C(=O)OC(C)C)cn2)cc1)C(F)(F)F [compound 139],100%,0%,
CCOC(=O)c1cnn(Cc2ccc(C/C=C(\OCC)C(F)(F)F)cc2)c1 [compound 140],98%,23%,

Structure (SMILES),Test A rating (disease control) (Phakopsora pachyrhizi; 10 ppm test suspension),Test B rating (disease control) ([1]; 10 ppm test suspension),further results
CCOC(=O)c1cnn(Cc2ccc(COCC3(C(F)(F)F)OCCO3)cc2)c1 [compound 141],0%,0%,
CCO/C(=C\Oc1ccc(-c2noc(C(F)(F)F)n2)cc1)C(F)(F)F [compound 143],0%,0%,
CCO/C(=C\Oc1ccc(C#N)cc1)C(F)(F)F [compound 144],78%,0%,
CCOC(=O)c1cnn(Cc2ccc(O/C=C(\OCCO)C(F)(F)F)cc2)c1 [compound 145],82%,0%,
CCOC(=O)c1cnn(Cc2cccc(OCC3(C(F)(F)F)OCCO3)c2)c1 [compound 146],,,pest or weed control at 50 ppm (Phakopsora pachyrhizi; 50 ppm test suspension): 60%; pest or weed control at 50 ppm ([1]; 50 ppm test suspension): 0%
N#Cc1cccc(OCC2(C(F)(F)F)OCCO2)c1 [compound 147],,,pest or weed control at 50 ppm (Phakopsora pachyrhizi; 50 ppm test suspension): 77%; pest or weed control at 50 ppm ([1]; 50 ppm test suspension): 0%
CCO/C(=C\Oc1ccc(C=O)cc1)C(F)(F)F [compound 148],0%,0%,
CCO/C(=C\Oc1ccc(CNS(=O)(=O)CC)cc1)C(F)(F)F [compound 149],0%,0%,
CCO/C(=C\Oc1ccc(CNC(=O)CC)cc1)C(F)(F)F [compound 150],33%,0%,
CCO/C(=C\Oc1ccc(Cn2cccn2)cc1)C(F)(F)F [compound 151],0%,0%,
CCO/C(=C\Oc1ccc(Cn2nc(C)cc2C)cc1)C(F)(F)F [compound 152],0%,0%,
CCOC(=O)c1cn(Cc2ccc(O/C=C(\OCC)C(F)(F)F)cc2)cn1 [compound 153],100%,0%,
CCO/C(=C\Oc1ccc(CC#N)cc1)C(F)(F)F [compound 154],0%,0%,
CCO/C(=C\Oc1ccc(CSC#N)cc1)C(F)(F)F [compound 155],0%,0%,
CCO/C(=C\Oc1ccc(Cn2ccnc2)cc1)C(F)(F)F [compound 156],0%,0%,
CCO/C(=C\Oc1ccc(Cn2ccc(C)n2)cc1)C(F)(F)F [compound 158],0%,0%,
CCOC(=O)c1ccc2c(cnn2Cc2ccc(OCC3(C(F)(F)F)OCCO3)cc2)c1 [compound 160],13%,0%,
O=C(OCCCCl)c1cnn(Cc2ccc(OCC3(C(F)(F)F)OCCO3)cc2)c1 [compound 161],100%,0%,
N#CCNC(=O)c1cnn(Cc2ccc(OCC3(C(F)(F)F)OCCO3)cc2)c1 [compound 164],31%,0%,
O=[N+]([O-])c1cccc(OCC2(C(F)(F)F)OCCO2)c1 [compound 165],,,pest or weed control at 10 ppm (Phakopsora pachyrhizi; 10 ppm test suspension): 0%; pest or weed control at 10 ppm ([1]; 10 ppm test suspension): 0%
O=[N+]([O-])c1ccc(OCC2(C(F)(F)F)OCCO2)cc1 [compound 166],100%,95%,
CCOC(=O)c1cnn(Cc2ccc(CO/C=C(\OCC)C(F)(F)F)cc2)c1 [compound 167],38%,0%,
CCOC(=O)c1cnn(Cc2ccc(OCC3(C(F)(F)F)OCCO3)nc2)c1 [compound 168],,,pest or weed control at 10 ppm (Phakopsora pachyrhizi; 10 ppm test suspension): 0%; pest or weed control at 10 ppm ([1]; 10 ppm test suspension): 0%
CC(=O)COC(=O)c1cnn(Cc2ccc(OCC3(C(F)(F)F)OCCO3)cc2)c1 [compound 169],100%,0%,
